This note sets out measurements from patent US20260265251A1 (priority 2023, published 2026).

The test system of test [1] is SK-MEL-3 cells. Nature of the test: SK-MEL-3 cell proliferation assay. In kind it is cell-based. The settings on record: Homo sapiens, SK-MEL3; SK-MEL-3 cells, 72 hours, CellTiter-Glo; read-out: SK-MEL-3 IC50. A general note: ATP-based viability assays read luminescence as a measure of living cells.
In test [2] the test system is A2058 cells. As to the kind of experiment: A2058 cell proliferation assay. Format: cell-based. To be noted: Homo sapiens, 96 hours, CellTiter-Glo.

The IC50 is the concentration that gives 50% inhibition. As to `O=c1[nH]c2cc3c(nc2[nH]1)CCC(c1cnn(C(F)F)c1Cl)C3` (racemic) [Example 64, 7-(5-chloro-1-(difluoromethyl)-1H-pyrazol-4-yl)-1,3,5,6,7,8-hexahydro-2H-imidazo[4,5-b]quinolin-2-one], the figures for the IC50 in test [1] and in test [2] were 0.08 nM and 0.4 nM, respectively.

With `O=c1[nH]c2cc3c(nc2[nH]1)CC[C@H](c1cnn(C(F)F)c1Cl)C3` (single isomer, unassigned) [Example 64-A, (*S)-7-(5-chloro-1-(difluoromethyl)-1H-pyrazol-4-yl)-1,3,5,6,7,8-hexahdro-2H-imidazo[4,5-b]quinolin-2-one], the concentration for half-maximal inhibition (IC50) in test [1] stood at 0.04 nM; in test [2], 0.29 nM.

Turning to `O=c1[nH]c2cc3c(nc2[nH]1)CC[C@@H](c1cnn(C(F)F)c1Cl)C3` (single isomer, unassigned) [Example 64-B, (*R)-7-(5-chloro-1-(difluoromethyl)-1H-pyrazol-4-yl)-1,3,5,6,7,8-hexahydro-2H-imidazo[4,5-b]quinolin-2-one], the figures for the IC50 in test [1] and in test [2] were 0.5 nM and 1.79 nM, respectively.

Consider `O=c1[nH]c2cc3cc(-c4ccc(F)cc4Cl)ccc3nc2[nH]1` [Example 3, 7-(2-chloro-4-fluorophenyl)-1,3-dihydro-2H-imidazo[4,5-b]quinolin-2-one], for which the concentration for half-maximal inhibition (IC50) amounted to 0.5 nM in test [1] and 1.2 nM in test [2].

In the case of `O=c1[nH]c2cc3cc(-c4cnn(C(F)F)c4Cl)ccc3nc2[nH]1` [Example 13, 7-(5-chloro-1-(difluoromethyl)-1H-pyrazol-4-yl)-1,3-dihydro-2H-imidazo[4,5-b]quinolin-2-one], the half-inhibitory concentration (IC50) is 0.03 nM in test [1] and 0.1 nM in test [2].

For the compound `N#Cc1ccc(-c2ccc3nc4[nH]c(=O)[nH]c4cc3c2)c(Cl)c1` [Example 14, 7-(2-chloro-4-cyanophenyl)-1,3-dihydro-2H-imidazo[4,5-b]quinolin-2-one], the half-inhibitory concentration (IC50) in test [1] amounted to 0.3 nM; in test [2] it was 1.1 nM.

Consider `O=c1[nH]c2cc3cc(-c4nn(C(F)F)cc4Cl)ccc3nc2[nH]1` [Example 15, 7-(4-chloro-1-(difluoromethyl)-1H-pyrazol-3-yl)-1,3-dihydro-2H-imidazo[4,5-b]quinolin-2-one], for which the results for the half-maximal inhibitory concentration (IC50) in test [1] and in test [2] were 0.7 nM and 3.9 nM, respectively.

Compound `O=c1[nH]c2cc3cc(-c4ncn(C(F)F)c4Cl)ccc3nc2[nH]1` [Example 37, 7-(5-chloro-1-(difluoromethyl)-1H-imidazol-4-yl)-1,3-dihydro-2H-imidazo[4,5-b]quinolin-2-one] had an IC50 in test [2] of 1 nM.

In turn, `O=c1[nH]c2cc3cc(-c4ccc(Cl)nc4OC(F)F)ccc3nc2[nH]1` [Example 39, 7-(6-chloro-2-(difluoromethoxy)pyridin-3-yl)-1,3-dihydro-2H-imidazo[4,5-b]quinolin-2-one] gave an IC50 in test [2] of 3.3 nM.

With `CNc1ccc(-c2ccc3nc4[nH]c(=O)[nH]c4cc3c2)c(Cl)n1` [Example 40, 7-(2-chloro-6-(methylamino)pyridin-3-yl)-1,3-dihydro-2H-imidazo[4,5-b]quinolin-2-one], the concentration for half-maximal inhibition (IC50) in test [2] was determined as 8 nM.

Turning to `CNc1nc(Cl)ccc1-c1ccc2nc3[nH]c(=O)[nH]c3cc2c1` [Example 41, 7-(6-chloro-2-(methylamino)pyridin-3-yl)-1,3-dihydro-2H-imidazo[4,5-b]quinolin-2-one], the IC50 in test [2] amounted to 61 nM.

Regarding `O=c1[nH]c2cc3cc(-c4cnn(C(F)F)c4OC(F)F)ccc3nc2[nH]1` [Example 42, 7-(5-(difluoromethoxy)-1-(difluoromethyl)-1H-pyrazol-4-yl)-1,3-dihydro-2H-imidazo[4,5-b]quinolin-2-one], half-maximal inhibition in test [2] (IC50) required 0.4 nM.

`[2H]C([2H])([2H])c1c(-c2ccc3nc4[nH]c(=O)[nH]c4cc3c2)cnn1C(F)F` [Example 45, 7-(1-(difluoromethyl)-5-(methyl-d3)-1H-pyrazol-4-yl)-1,3-dihydro-2H-imidazo[4,5-b]quinolin-2-one] yielded an IC50 in test [2] of 0.19 nM.

The compound `O=c1[nH]c2cc3c(nc2[nH]1)CCC(c1ccc(F)cc1)C3` (centres unmarked) [Example 57, 7-(4-fluorophenyl)-1,3,5,6,7,8-hexahydro-2H-imidazo[4,5-b]quinolin-2-one] had an IC50 in test [2] of 32.2 nM.

Regarding `O=c1[nH]c2cc3c(nc2[nH]1)CCN(c1nc(C(F)(F)F)ccc1F)C3` [Example 60, 7-(3-fluoro-6-(trifluoromethyl)pyridin-2-yl)-1,3,5,6,7,8-hexahydro-2H-imidazo[4,5-b][1,6]naphthyridin-2-one], the IC50 in test [2] is 1.7 nM.

On to `O=c1[nH]c2cc3c(nc2[nH]1)CCN(c1ccc(F)c(C(F)(F)F)n1)C3` [Example 61, 7-(5-fluoro-6-(trifluoromethyl)pyridin-2-yl)-1,3,5,6,7,8-hexahydro-2H-imidazo[4,5-b][1,6]naphthyridin-2-one], for which half-maximal inhibition in test [2] (IC50) required 1.9 nM.

With `O=c1[nH]c2cc3c(nc2[nH]1)CCN(c1ccc(Cl)nc1C(F)(F)F)C3` [Example 62, 7-(6-chloro-2-(trifluoromethyl)pyridin-3-yl)-1,3,5,6,7,8-hexahydro-2H-imidazo[4,5-b][1,6]naphthyridin-2-one], the IC50 in test [2] amounted to 31.9 nM.

`O=c1[nH]c2cc3c(nc2[nH]1)CCC(c1cn(C(F)F)nc1Cl)C3` (centres unmarked) [Example 63, 7-(3-chloro-1-(difluoromethyl)-1H-pyrazol-4-yl)-1,3,5,6,7,8-hexahydro-2H-imidazo[4,5-b]quinolin-2-one] came in with an IC50 in test [2] of 8.1 nM.

With `O=c1[nH]c2cc3c(Cl)c(N4CC5(CCC5)C4)ccc3nc2[nH]1` [Example 76, 8-chloro-7-(2-azaspiro[3.3]heptan-2-yl)-1,3-dihydro-2H-imidazo[4,5-b]quinolin-2-one], the concentration for half-maximal inhibition (IC50) in test [1] stood at 2.3 nM.

`O=c1[nH]c2cc3c(OC(F)F)c(-c4ccc(F)cc4)ccc3nc2[nH]1` [Example 77, 8-(difluoromethoxy)-7-(4-fluorophenyl)-1,3-dihydro-2H-imidazo[4,5-b]quinolin-2-one]: in test [1], the IC50 was found to be 4.4 nM.

For `COc1c(-c2ccc(F)cc2)ccc2nc3[nH]c(=O)[nH]c3cc12` [Example 78, 8-(methoxy)-7-(4-fluorophenyl)-1,3-dihydro-2H-imidazo[4,5-b]quinolin-2-one], in test [1], the IC50 stood at 0.9 nM.

On to `Cc1ccc(-c2ccc3nc4[nH]c(=O)[nH]c4cc3c2C(F)(F)F)cc1` [Example 79, 7-(p-tolyl)-8-(trifluoromethyl)-1,3-dihydro-2H-imidazo[4,5-b]quinolin-2-one], for which, in test [1], the half-maximal inhibitory concentration (IC50) turned out to be 0.4 nM.

On to `O=c1[nH]c2cc3c(C(F)(F)F)c(-c4ccccc4)ccc3nc2[nH]1` [Example 80, 7-phenyl-8-(trifluoromethyl)-1,3-dihydro-2H-imidazo[4,5-b]quinolin-2-one], for which the half-inhibitory concentration (IC50) in test [1] is 0.5 nM.

On to `O=c1[nH]c2cc3c(Cl)c(N4CCC5(CC4)CC5)ccc3nc2[nH]1` [Example 81, 8-chloro-7-(6-azaspiro[2.5]octan-6-yl)-1,3-dihydro-2H-imidazo[4,5-b]quinolin-2-one], for which the IC50 in test [1] is 9.7 nM.

Turning to `CCC1=CCN(c2ccc3nc4[nH]c(=O)[nH]c4cc3c2Cl)CC1` [Example 82, 8-chloro-7-(4-ethyl-3,6-dihydropyridin-1(2H)-yl)-1,3-dihydro-2H-imidazo[4,5-b]quinolin-2-one], in test [1], the concentration for half-maximal inhibition (IC50) is 509 nM.

Take `O=c1[nH]c2cc3c(Cl)c(-c4ccc(F)cc4Cl)ccc3nc2[nH]1` [Example 83, 8-chloro-7-(2-chloro-4-fluorophenyl)-1,3-dihydro-2H-imidazo[4,5-b]quinolin-2-one]: in test [1], the IC50 turned out to be 0.4 nM.

As for `O=c1[nH]c2cc3c(C(F)(F)F)c(-c4ccc(F)cc4)ccc3nc2[nH]1` [Example 84, 7-(4-fluorophenyl)-8-(trifluoromethyl)-1,3-dihydro-2H-imidazo[4,5-b]quinolin-2-one], the IC50 in test [1] came to 1.2 nM.

On to `COc1c(-c2ccc(F)cc2Cl)ccc2nc3[nH]c(=O)[nH]c3cc12` [Example 85, 7-(2-chloro-4-fluorophenyl)-8-methoxy-1,3-dihydro-2H-imidazo[4,5-b]quinolin-2-one], for which the concentration for half-maximal inhibition (IC50) in test [1] was determined as 0.3 nM.

In turn, `O=c1[nH]c2cc3c(Cl)c(-c4cn(C(F)F)nc4Cl)ccc3nc2[nH]1` [Example 87, 8-chloro-7-(3-chloro-1-(difluoromethyl)-1H-pyrazol-4-yl)-1,3-dihydro-2H-imidazo[4,5-b]quinolin-2-one] came in with a 50% inhibitory concentration (IC50) in test [2] of 2 nM.

`O=c1[nH]c2cc3cc(-c4cnn(C(F)F)c4Cl)c(Cl)cc3nc2[nH]1` [Example 88, 6-chloro-7-(5-chloro-1-(difluoromethyl)-1H-pyrazol-4-yl)-1,3-dihydro-2H-imidazo[4,5-b]quinolin-2-one] yielded an IC50 in test [2] of 9.1 nM.

On to `O=c1[nH]c2cc3cc(-c4cn(C(F)F)nc4Cl)c(Cl)cc3nc2[nH]1` [Example 89, 6-chloro-7-(3-chloro-1-(difluoromethyl)-1H-pyrazol-4-yl)-1,3-dihydro-2H-imidazo[4,5-b]quinolin-2-one], for which 18.8 nM corresponded to half-maximal inhibition in test [2] (IC50).

Consider `O=c1[nH]c2cc3c(Cl)c(-n4ccc(C(F)(F)F)n4)ccc3nc2[nH]1` [Example 90, 8-chloro-7-(3-(trifluoromethyl)-1H-pyrazol-1-yl)-1,3-dihydro-2H-imidazo[4,5-b]quinolin-2-one], for which the concentration for half-maximal inhibition (IC50) in test [1] was 3.4 nM.

Turning to `COc1ncc(N2CCc3nc4[nH]c(=O)[nH]c4cc3C2)cc1C(F)(F)F` [Example 91, 7-(6-methoxy-5-(trifluoromethyl)pyridin-3-yl)-1,3,5,6,7,8-hexahydro-2H-imidazo[4,5-b][1,6]naphthyridin-2-one], in test [1], the half-inhibitory concentration (IC50) turned out to be 281 nM.

As for `Cc1ccc(-c2ccc3nc4[nH]c(=O)[nH]c4nc3c2Cl)cc1` [Example 92, 5-chloro-6-(p-tolyl)-1,3-dihydro-2H-imidazo[4,5-b]quinoxalin-2-one], the IC50 in test [1] was 88.2 nM.

With `Cn1c(=O)[nH]c2nc3ccc(-c4ccc(F)cc4)c(Cl)c3cc21` [Example 93, 8-chloro-7-(4-fluorophenyl)-1-methyl-1,3-dihydro-2H-imidazo[4,5-b]quinolin-2-one], the 50% inhibitory concentration (IC50) in test [1] worked out at 8.7 nM.

With `Cc1ccc(-c2ccc3nc4[nH]c(=O)oc4cc3c2Cl)cc1` [Example 94, 8-chloro-7-(p-tolyl)oxazolo[4,5-b]quinolin-2(3H)-one], the concentration for half-maximal inhibition (IC50) in test [1] came out at 258 nM.

On to `Cc1ccc(-c2ccc3nc4c(cc3c2Cl)C(=O)C(=O)N4)cc1` [Example 95, 5-chloro-6-(p-tolyl)-1H-pyrrolo[2,3-b]quinolin-2,3-dione], for which the IC50 in test [1] is 55.5 nM.
